This is an account of results in patent publication US20110014204A1, “Cancer Chemoprevention Strategy Based on Loss of Imprinting of IGF2” (priority 2006, published 2011).

For series [1], the system named is aberrant crypt foci (ACF). Put plainly: Azoxymethane (AOM)-induced aberrant crypt foci (ACF) in LOI(+) and LOI(−) mice, NVP-AEW541 by oral gavage. It counts as in vivo. Particulars: AOM intraperitoneally weekly for 3 weeks, sacrificed at 5 weeks, no inhibitor. The procedure:
ACF formation in the colon was induced by AOM intraperitoneal injection, and treatment with NVP-AEW541 was by gastric gavage. Each ACF was formed of 1-4 aberrant crypts, and the number of ACF (# of ACF), the number of total aberrant crypts (# of AC), and the average number of aberrant crypts per ACF were measured.
(A) ACF formation in the colon was induced by AOM i.p. injection, and treatment with NVP-AEW541 was by gastric […]. Each ACF was formed of […] aberrant crypts, and the number of ACF (# of ACF), the number of total aberrant crypts (# of AC), and the average number of aberrant crypts per ACF were measured. LOI(+) AOM mice (dark gray bars), LOI(−) AOM mice (black bars), LOI(+) AOM NVP mice (light gray bars), LOI(−) AOM NVP mice (gray bars). (B) The number of ACF and the number of total aberrant crypts (AC) were corrected by colon surface area (cm^2).
7 week old LOI(+) and LOI(−) littermate controls were treated with AOM at 10 mg/kg body weight intraperitoneally once per week for three weeks, and euthanized 5 weeks after the first dose of AOM. The entire colon was resected from mice after laparotomy, flushed with PBS, filled with 10% buffered formalin (Sigma) for one minute, opened longitudinally, fixed flat between filter paper in formalin at 4° C. overnight, rinsed with PBS, and stained with 0.2% methylene blue in saline. The number of ACF per colon and the number of aberrant crypts per ACF were scored under a light microscopy as previously described Bird, Cancer Lett (1987) 37:147-151). NVP-AEW541 (50 mg/kg) was administered by oral gavage, beginning 1 week before AOM treatment, and NVP-AEW541 was administered 7 days/week, twice a day for 5 weekdays and once a day for 2 weekend days, for 6 weeks until sacrifice.
Because of known strain variation in progression of these lesions, littermate controls were treated with and without LOI, in which the dams were heterozygous for a deletion of the H19 differentially methylated region (DMR); inheritance of a maternal allele lacking the DMR leads to activation of the normally silent allele of Igf2 [LOI(+)], while inheritance of a wild type maternal allele leads to normal imprinting [LOI(−)]. Eight LOI(+) and 14 LOI(−) mice were given AOM intraperitoneally weekly for 3 weeks, sacrificed at 5 weeks after the first dose, and ACF were scored by the method of Bird (1987). Histologic examination of colons from AOM-treated mice confirmed the presence of ACF, with hyperproliferative features including increased mitosis, crypt enlargement and crypt disarray (FIG. 12). […] An additional intriguing finding in AOM-treated LOI(+) mice was cystically dilated crypts lined by enlarged cells with atypical nuclei and that contained necrotic debris, that were reminiscent of sessile serrated adenomas (SSAs) seen in the human colon (FIG. 12). SSAs also show crypt dilatation in association with cytologic atypia and are currently of immense interest for their recently recognized association with colorectal cancer (Snover et al., Am J Clin Pathol (2005) 124:380-391). It will thus be of interest to determine whether SSAs are associated with LOI in the human population.
An additional 9 LOI(+) mice and 9 LOI(−) control littermates were similarly exposed to AOM, adding treatment with NVP-AEW541, an IGF1R inhibitor, at a dose of 50 mg/kg by oral gavage daily for 6 weeks (twice daily except daily on weekends). […] Thus, LOI of lgf2 increases the sensitivity to AOM through an IGF1R-dependent mechanism.
Eight LOI(+) and 14 LOI(−) mice were given AOM intraperitoneally weekly for 3 weeks, sacrificed at 5 weeks after the first dose, and ACFs were scored as described (Bird (1987)). Histologic examination of colons from AOM-treated mice confirmed the presence of ACFs, with hyperproliferative features including increased mitosis, crypt enlargement and crypt disarray (FIG. 14A, B). […]

The subject of another series is mouse ES cells. As to the kind of experiment: IGF2 stimulation of mouse ES cells, gene expression by real-time RT-PCR, with or without NVP-AEW541. The format is cell-based. Particulars: 800 ng/ml mouse Igf2 recombinant protein. As for the experimental part:
Mouse ES cells were cultured in defined medium and treated with 800 ng/ml mouse lgf2 protein. Gene expression was analyzed by real-time RT-PCR and normalized to β-actin. Shown is the expression level without (black boxes) and with (gray boxes) the IGF1R inhibitor 3 μM NVP-AEW541 (a pyrrolo-2,3d-pyrimidine), normalized to time 0. The bars indicate standard error.
Mouse ES cells were cultured in defined medium and treated with 800 ng/ml mouse lgf2 protein. Gene expression was analyzed by real-time RT-PCR and normalized to β-actin. Shown is the expression level without (black boxes) and with (pink boxes) the IGF1R R inhibitor 3 μM NVP-AEW541, normalized to time 0. The bar represents standard error.
For IGF2 stimulation, wild type ES cells were isolated as described above, and cultured in ESGRO Complete Basal Medium with 800 ng/ml of mouse Igf2 recombinant protein (StemCell Technologies), with or without 3 μM NVP-AEW541 (Novartis). Cells were washed with PBS twice and RNA was extracted using the RNeasy Kit (QIAGEN) at Oh, 3 h, 6 h, 10 h, and 24 h. Gene expression was assayed by real-time quantitative RT-PCR as described above.
It remained theoretically possible that the observed difference in gene expression simply reflected the over-representation of progenitor cells within the intestinal crypts, rather than a change in cellular gene expression per se. To confirm the latter, mouse embryonic stem (ES) cells were derived and plated in ESGRO Complete Clonal Grade defined medium (Chemicon), which contains no IGF2 and allows growth of undifferentiated ES cells without a feeder layer, which was done with or without 800 ng/ml of mouse Igf2 recombinant protein (StemCell Technologies). Consistent with the microarray experiments, Igf2 induced a 50% and 56% increase in Cdc6 gene expression at 3 and 6 hours, respectively, and 40% and 25% at 10 and 24 hours, respectively (FIG. 3).
(In general: Quantitative PCR measures a nucleic acid by following its amplification.)

The subject of another series is Akt/PKB. As to the kind of experiment: Microfluidic chamber single cell immunocytochemistry of Akt/PKB activation (phospho-Akt Ser 473) in LOI(+) and LOI(−) MEF cells. It counts as cell-based, mouse. As for the experimental part: (A) Akt/PKB activation was assayed by single cell immunocytochemistry with an antibody to phosphorylated Akt (Ser 473), in a monolithic 2-layer PDMS chip sealed with a glass coverslip, with defined media delivery controlled by a multiplexed system of valves. Live LOI(+) and LOI(−) MEF cells were stimulated within the microfluidic chips with varying doses of IGF2, with measurements at multiple time points at each IGF2 concentration. […] For each cell type, IGF2 concentration, and time point, at least 200 individual cellular measurements were obtained by digital imaging and analysis. (B) Inhibition of Akt activation by NVP-AEW541. The cells were assayed as in (A) at 60 min after coincubation with 400 ng/ml IGF2 and 3 μM NVP-AEW541 and compared with the unstimulated control. Each bar is based on measurements of >400 cells. Asterisk indicates statistical difference vs LOI(+) control (t test, P<0.001) (C) Single cell analysis of ERK activation by IGF2 in LOI(+) and LOI(−) MEF cells. Erk activation was assayed by single immunocytochemistry within microfluidic chips using an antibody to phosphorylated Erk2 from Upstate (Charlottesville, Va.). LOI(+) cells (gray) and LOI(−) cells (black) were exposed to 400 ng/ml IGF2 for indicated times. […] Error bars represent SD. Standard error bars are completely subsumed by the symbols on this scale. (D) Gene expression levels in mouse embryonic fibroblasts. Quantitative real-time PCR was performed on LOI(+) and LOI(−) MEF cells, with expression normalized to transferring receptor expression. The expression level in LOI(+) samples (black) relative to LOI(−) samples (gray) is shown. The bars indicate standard error.
The immunostaining automation device consists of a monolithic 2-layer PDMS chip sealed with a glass coverslip, fabricated using techniques described previously (Unger et al., Science 288 (2000) 288:113-116). Multiplexing valves were actuated by pressure lines connected to off-device solenoid valves. The chip architecture, performance and validation are all described in a separate manuscript submitted for publication. The glass substrate of the cell culture chamber was coated by introducing 0.1% gelatin (Sigma) into the device for at least 30 minutes, then cells were introduced and allowed to attach for 3 hours. IGF2 (StemCell Technologies) dissolved in cell media was introduced to each chamber at different times so that the end of all stimulation periods coincided. To end the experiment, ice-cold PBS (Invitrogen) was introduced into all chambers followed immediately by 4% paraformaldehyde (Electron Microscopy Systems) for 20 minutes. Cells were permeabilized with 0.1% Triton X-100 (Sigma) for 5 min and blocked with 10% goat serum (Sigma), with PBS washes in between. […] Using custom MATLAB (Mathworks) programs, the images were […], stitched together, and quantified. […] For each cell type and time point, 200-300 cells were analyzed in this manner to ensure statistical significance.
Since both the endogenous IGF2 and IGF2 used in the MEF experiments are susceptible to IGF2 binding protein (IBP)-based inactivation, the dose of an IBP-resistant IGF2 variant was determined producing similar levels of Akt activation. […]

The target in the next series is IGF1R (Homo sapiens, UniProt P08069). Particulars: previously estimated; read-out: kD of IGF1R for IGF2; cited from earlier work.
Chain of IGF1R (P08069 31-736 limits assumed, species assumed): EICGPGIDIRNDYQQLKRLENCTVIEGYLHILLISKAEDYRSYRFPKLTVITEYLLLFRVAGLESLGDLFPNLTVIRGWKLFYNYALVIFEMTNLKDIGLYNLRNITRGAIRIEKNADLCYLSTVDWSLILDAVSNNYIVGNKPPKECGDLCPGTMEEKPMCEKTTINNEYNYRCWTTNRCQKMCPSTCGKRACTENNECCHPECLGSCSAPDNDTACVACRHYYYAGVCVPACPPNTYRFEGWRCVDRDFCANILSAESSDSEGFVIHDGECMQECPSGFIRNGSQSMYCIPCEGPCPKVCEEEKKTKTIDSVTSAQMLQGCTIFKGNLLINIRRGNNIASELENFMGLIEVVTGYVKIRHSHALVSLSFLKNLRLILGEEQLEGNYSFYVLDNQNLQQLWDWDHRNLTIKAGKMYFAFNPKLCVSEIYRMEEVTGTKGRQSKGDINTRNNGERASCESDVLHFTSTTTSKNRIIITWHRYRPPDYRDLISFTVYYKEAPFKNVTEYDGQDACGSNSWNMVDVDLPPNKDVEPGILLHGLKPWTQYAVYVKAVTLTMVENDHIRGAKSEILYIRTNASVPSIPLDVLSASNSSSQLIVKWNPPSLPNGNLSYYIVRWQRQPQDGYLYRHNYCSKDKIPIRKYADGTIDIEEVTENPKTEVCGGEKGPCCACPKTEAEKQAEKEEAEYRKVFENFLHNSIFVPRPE
Chain of IGF1R (P08069 741-1367 partner limits assumed, species assumed): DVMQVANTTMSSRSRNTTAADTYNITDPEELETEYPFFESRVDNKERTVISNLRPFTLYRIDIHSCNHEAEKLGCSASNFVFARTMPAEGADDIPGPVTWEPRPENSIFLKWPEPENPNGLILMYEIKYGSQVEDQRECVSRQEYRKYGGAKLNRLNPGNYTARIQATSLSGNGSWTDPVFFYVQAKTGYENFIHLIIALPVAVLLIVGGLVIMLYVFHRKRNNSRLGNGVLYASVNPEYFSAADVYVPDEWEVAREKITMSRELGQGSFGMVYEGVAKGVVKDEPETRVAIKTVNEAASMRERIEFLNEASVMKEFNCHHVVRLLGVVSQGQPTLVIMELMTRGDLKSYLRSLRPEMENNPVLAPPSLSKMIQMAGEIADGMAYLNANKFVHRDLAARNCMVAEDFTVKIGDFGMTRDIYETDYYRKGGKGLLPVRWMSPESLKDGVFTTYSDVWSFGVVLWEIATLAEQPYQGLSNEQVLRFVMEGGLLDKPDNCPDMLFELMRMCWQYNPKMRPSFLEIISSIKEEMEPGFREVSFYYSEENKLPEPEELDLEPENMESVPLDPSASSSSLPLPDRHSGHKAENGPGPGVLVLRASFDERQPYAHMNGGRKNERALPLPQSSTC

Turning to `CN=[N+](C)[O-]` [AOM, azoxymethane], the ACF per colon came to 19.8±2.2 ACF per colon in series [1] (LOI(+) mice) and 12.4±0.9 ACF per colon in series [1] (LOI(−) mice).

As for insulin-like growth factor 2 [IGF2], the “increase in Cdc6 gene expression” value is reported as 50% in the series on mouse ES cells (3 hours), 56% in the series on mouse ES cells (6 hours), 40% in the series on mouse ES cells (10 hours) and 25% with mouse ES cells (24 hours). The “Akt signal at higher IGF2 doses” value with Akt/PKB (LOI(+) MEF cells, IGF2 doses above 400 ng/ml) was “progressively more transient and less pronounced”. Moreover, the “duration of sustained Akt activation” value in the series with Akt/PKB (LOI(+) MEF cells, lowest IGF2 concentration 400 ng/ml) was more than 120 min. For the same compound, the “return of Akt activation to the baseline” value with Akt/PKB (LOI(−) MEF cells, IGF2 400, 800 and 1600 ng/ml) is given as not above 90 min. The Kd (in general, the constant that tells how readily two partners part at equilibrium) with IGF1R was 1 to 10 nM.
